From PubChem BioAssay (NCI)
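Assay format: 96-well plates, 48-hour exposure. At the TGI there is no net growth.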

Legend:
Test in all cases: NCI tumour cell line growth inhibition, 48 h
HT29 colon = test system: HT29 colon
786-0 renal = test system: 786-0 renal
SK-MEL-5 melanoma = test system: SK-MEL-5 melanoma
MOLT-4 leukemia = test system: MOLT-4 leukemia
MDA-MB-435 = test system: MDA-MB-435
SNB-19 CNS = test system: SNB-19 CNS
SN12C renal = test system: SN12C renal
KM12 colon = test system: KM12 colon
OVCAR-5 ovarian = test system: OVCAR-5 ovarian
K-562 leukemia = test system: K-562 leukemia
MALME-3M melanoma = test system: MALME-3M melanoma
UACC-62 melanoma = test system: UACC-62 melanoma
NCI-H460 lung = test system: NCI-H460 lung
SF-539 CNS = test system: SF-539 CNS
RXF 393 renal = test system: RXF 393 renal
SW-620 colon = test system: SW-620 colon
SNB-75 CNS = test system: SNB-75 CNS
U251 CNS = test system: U251 CNS
SF-295 CNS = test system: SF-295 CNS
NCI-H226 lung = test system: NCI-H226 lung

[N-]=[N+]=Nc1c(C=O)c(=O)n2c3c(cccc13)CCC2
TGI (HT29 colon): > 70.2 µM | TGI (786-0 renal): 8.83 µM | TGI (SK-MEL-5 melanoma): 27.5 µM | TGI (MOLT-4 leukemia): 4.26 µM | TGI (MDA-MB-435): 20.1 µM | TGI (SNB-19 CNS): 42.1 µM | TGI (SN12C renal): 37.5 µM | TGI (KM12 colon): 34.6 µM | TGI (OVCAR-5 ovarian): 21 µM | TGI (K-562 leukemia): 13 µM | TGI (MALME-3M melanoma): 4.26 µM | TGI (UACC-62 melanoma): 26.5 µM | TGI (NCI-H460 lung): 47.2 µM | TGI (SF-539 CNS): 36.1 µM | TGI (RXF 393 renal): 3.76 µM | TGI (SW-620 colon): 2.87 µM | TGI (SNB-75 CNS): 29.1 µM | TGI (U251 CNS): 19.5 µM | TGI (SF-295 CNS): > 76.6 µM | TGI (NCI-H226 lung): 43.7 µM

CN(CC1(CO)CCC1)c1cc(Cl)nc(N)n1
TGI (HT29 colon): > 100 µM | TGI (786-0 renal): > 100 µM | TGI (SK-MEL-5 melanoma): > 100 µM | TGI (MOLT-4 leukemia): > 100 µM | TGI (MDA-MB-435): > 100 µM | TGI (SNB-19 CNS): > 100 µM | TGI (SN12C renal): > 100 µM | TGI (KM12 colon): > 100 µM | TGI (OVCAR-5 ovarian): > 100 µM | TGI (K-562 leukemia): > 100 µM | TGI (MALME-3M melanoma): > 100 µM | TGI (UACC-62 melanoma): > 100 µM | TGI (NCI-H460 lung): > 100 µM | TGI (SF-539 CNS): > 100 µM | TGI (RXF 393 renal): > 100 µM | TGI (SW-620 colon): > 100 µM | TGI (SNB-75 CNS): > 100 µM | TGI (U251 CNS): > 100 µM | TGI (SF-295 CNS): > 100 µM | TGI (NCI-H226 lung): > 100 µM

CCN(CC)CCCNc1nc(=O)[nH]c(C)c1C(=O)Nc1cccc2cc3ccccc3cc12
TGI (HT29 colon): > 100 µM | TGI (786-0 renal): > 100 µM | TGI (SK-MEL-5 melanoma): > 100 µM | TGI (MOLT-4 leukemia): > 100 µM | TGI (MDA-MB-435): > 100 µM | TGI (SNB-19 CNS): > 100 µM | TGI (SN12C renal): > 100 µM | TGI (KM12 colon): > 100 µM | TGI (OVCAR-5 ovarian): > 100 µM | TGI (K-562 leukemia): > 100 µM | TGI (MALME-3M melanoma): > 100 µM | TGI (UACC-62 melanoma): > 100 µM | TGI (SF-539 CNS): > 100 µM | TGI (RXF 393 renal): > 100 µM | TGI (SW-620 colon): > 100 µM | TGI (SNB-75 CNS): > 100 µM | TGI (U251 CNS): > 100 µM | TGI (SF-295 CNS): > 100 µM | TGI (NCI-H226 lung): > 100 µM

C=CC/C=C/Cc1csc(C(C)(C)C(O)C/C=C/C(=C)CCNC(=O)OC)n1 (centres undefined)
TGI (HT29 colon): > 100 µM | TGI (786-0 renal): > 100 µM | TGI (SK-MEL-5 melanoma): > 60.5 µM | TGI (MOLT-4 leukemia): > 100 µM | TGI (MDA-MB-435): > 100 µM | TGI (SNB-19 CNS): > 100 µM | TGI (SN12C renal): > 100 µM | TGI (KM12 colon): > 100 µM | TGI (OVCAR-5 ovarian): > 100 µM | TGI (K-562 leukemia): > 81.5 µM | TGI (MALME-3M melanoma): > 100 µM | TGI (UACC-62 melanoma): > 100 µM | TGI (NCI-H460 lung): > 100 µM | TGI (SF-539 CNS): > 100 µM | TGI (RXF 393 renal): > 100 µM | TGI (SW-620 colon): > 46.4 µM | TGI (SNB-75 CNS): > 83.8 µM | TGI (U251 CNS): > 100 µM | TGI (SF-295 CNS): > 100 µM | TGI (NCI-H226 lung): > 100 µM

CC(C)(Br)C(Br)CCC(C)(Br)C(Br)CO (centres undefined)
TGI (HT29 colon): > 10 µM | TGI (786-0 renal): > 10 µM | TGI (SK-MEL-5 melanoma): > 10 µM | TGI (MOLT-4 leukemia): > 10 µM | TGI (MDA-MB-435): > 10 µM | TGI (SNB-19 CNS): > 10 µM | TGI (SN12C renal): > 10 µM | TGI (K-562 leukemia): > 10 µM | TGI (MALME-3M melanoma): > 10 µM | TGI (SF-539 CNS): > 10 µM | TGI (RXF 393 renal): > 10 µM | TGI (SW-620 colon): > 10 µM | TGI (SNB-75 CNS): > 10 µM | TGI (U251 CNS): > 10 µM | TGI (SF-295 CNS): > 10 µM | TGI (NCI-H226 lung): > 10 µM

C/C(=N/NC(=S)Nc1ccc([N+](=O)[O-])cc1)c1cccc(/C(C)=N\NC(=S)Nc2ccc([N+](=O)[O-])cc2)n1
TGI (HT29 colon): 16 µM | TGI (786-0 renal): 11.6 µM | TGI (SK-MEL-5 melanoma): 7.29 µM | TGI (MDA-MB-435): > 38.7 µM | TGI (SNB-19 CNS): 17.8 µM | TGI (SN12C renal): 14.4 µM | TGI (KM12 colon): > 35.7 µM | TGI (OVCAR-5 ovarian): 21.7 µM | TGI (K-562 leukemia): > 39.4 µM | TGI (MALME-3M melanoma): 9.13 µM | TGI (UACC-62 melanoma): 2.87 µM | TGI (NCI-H460 lung): 9.11 µM | TGI (SF-539 CNS): 2.28 µM | TGI (RXF 393 renal): 4.73 µM | TGI (SW-620 colon): 16.1 µM | TGI (SNB-75 CNS): > 44.3 µM | TGI (U251 CNS): 14.6 µM | TGI (SF-295 CNS): 8.33 µM | TGI (NCI-H226 lung): 1.84 µM
